Measured values published in patent US20070128217A1 (priority 2003, published 2007).

Assays:
[1] = test system: antibodies in sera from SARS patients (sera 1a, 1b, 2, 6, 37, 62, London, SARS-yellow, SARS-green); assay type: binding, human; parameters: Binding of serum 6 to linear peptides of protein X1 of SARS-CoV Urbani / Binding of serum 37 to linear peptides of protein X1 of SARS-CoV Urbani / Binding of serum 6 to looped/cyclic peptide (PEPSCAN-ELISA) / Binding of serum 37 to looped/cyclic peptide (PEPSCAN-ELISA) / Binding of serum 37 to looped/cyclic peptides of protein X1 of SARS-CoV Urbani / Binding of serum 6 to linear peptides of protein X2 / Binding of serum 37 to linear peptides of protein X2 / Binding of serum 37 to looped/cyclic peptides of protein X2 of SARS-CoV Urbani / Binding of serum 6 to linear peptides of protein M of SARS-CoV Urbani / Binding of serum 37 to linear peptides of protein M of SARS-CoV Urbani / Binding of serum 6 to looped/cyclic peptides of protein M of SARS-CoV Urbani / Binding of serum 37 to looped/cyclic peptides of protein M of SARS-CoV Urbani / Binding of serum 6 to linear peptides of protein X3 of SARS-CoV Urbani / Binding of serum 37 to linear peptides of protein X3 of SARS-CoV Urbani / Binding of serum 37 to looped/cyclic peptides of protein X3 of SARS-CoV Urbani / Binding of serum 6 to linear peptides of protein X4 of SARS-CoV Urbani / Binding of serum 37 to linear peptides of protein X4 of SARS-CoV Urbani / Binding of serum 37 to looped/cyclic peptides of protein X4 of SARS-CoV Urbani / Binding of serum 6 to linear peptides of protein X5 of SARS-CoV Urbani / Binding of serum 37 to linear peptides of protein X5 of SARS-CoV Urbani / Binding of serum 37 to looped/cyclic peptides of protein X5 of SARS-CoV Urbani / Binding of serum 6 to linear peptides of protein N of SARS-CoV Urbani / Binding of serum 37 to linear peptides of protein N of SARS-CoV Urbani / Binding of serum 6 to linear peptide (PEPSCAN-ELISA) / Binding of serum 1a to looped/cyclic peptides of protein N of SARS-CoV Urbani / Binding of serum 1b to looped/cyclic peptides of protein N of SARS-CoV Urbani / Binding of serum 2 to looped/cyclic peptides of protein N of SARS-CoV Urbani / Binding of serum 6 to looped/cyclic peptides of protein N of SARS-CoV Urbani / Binding of serum 37 to looped/cyclic peptides of protein N of SARS-CoV Urbani / Binding of serum 62 to looped/cyclic peptides of protein N of SARS-CoV Urbani / Binding of serum London to looped/cyclic peptides of protein N of SARS-CoV Urbani / Binding of serum SARS-green to looped/cyclic peptides of protein N of SARS-CoV Urbani: unit not given here
[2] = test system: control sera (pooled serum of ten healthy LUMC hospital workers; commercial negative donor pooled serum from the Dutch bloodbank); assay type: binding, human; parameters: Binding of Control serum LUMC to linear peptides / Binding of Control serum Blood-bank to linear peptides / Binding of Control serum LUMC to looped peptides / Binding of Control Serum Blood-Bank to Looped peptides / Binding of Control serum LUMC to linear peptides of the protein M of SARS-CoV Urbani / Binding of Control serum Blood-bank to linear peptides of the protein M of SARS-CoV Urbani / Binding of Control serum LUMC to looped peptides of the protein M of SARS-CoV Urbani / Binding of Control Serum Blood-Bank to Looped peptides of the protein M of SARS-CoV Urbani: unit not given here
[3] = test system: rabbit serum obtained by immunizing a rabbit with the SARS-CoV strain Frankfurt 1; assay type: binding; parameters: Binding of a rabbit serum to linear peptides / Binding of a rabbit serum to looped peptides / Rabbit serum linear peptides / Rabbit serum looped peptides / Binding of a rabbit serum to linear peptides of protein N of SARS-CoV Urbani (Rabbit serum linear peptides) / Binding of a rabbit serum to looped/cyclic peptides of protein N of SARS-CoV Urbani (Rabbit serum looped peptides): unit not given here
[4] = test system: recombinant human anti-SARS-CoV antibody 03-018; assay type: binding; parameters: Binding of antibody 03-018 to linear peptides of the N protein of SARS-CoV Urbani / Binding of antibody 03-018 to looped/cyclic peptides of the N protein of SARS-CoV Urbani: unit not given here

| Sequence | Binding of serum 1a to linear peptides of protein N of SARS-CoV Urbani [1] | Binding of serum 1a to looped/cyclic peptides of protein N of SARS-CoV Urbani [1] | Binding of serum 1b to linear peptides of protein N of SARS-CoV Urbani [1] | Binding of serum 1b to looped/cyclic peptides of protein N of SARS-CoV Urbani [1] | Binding of serum 2 to linear peptides of protein N of SARS-CoV Urbani [1] | Binding of serum 2 to looped/cyclic peptides of protein N of SARS-CoV Urbani [1] | Binding of serum 6 to linear peptides of protein N of SARS-CoV Urbani [1] | Binding of serum 6 to looped/cyclic peptides of protein N of SARS-CoV Urbani [1] | Binding of serum 37 to linear peptides of protein N of SARS-CoV Urbani [1] | Binding of serum 37 to looped/cyclic peptides of protein N of SARS-CoV Urbani [1] | Binding of serum 62 to linear peptides of protein N of SARS-CoV Urbani [1] | Binding of serum 62 to looped/cyclic peptides of protein N of SARS-CoV Urbani [1] | Binding of serum London to linear peptides of protein N of SARS-CoV Urbani [1] | Binding of serum London to looped/cyclic peptides of protein N of SARS-CoV Urbani [1] | Binding of serum SARS-green to linear peptides of protein N of SARS-CoV Urbani [1] | Binding of serum SARS-green to looped/cyclic peptides of protein N of SARS-CoV Urbani [1] | Binding of serum SARS-yellow to linear peptides of protein N of SARS-CoV Urbani [1] | Binding of serum SARS-yellow to looped/cyclic peptides of protein N of SARS-CoV Urbani [1] | Binding of a rabbit serum to linear peptides of protein N of SARS-CoV Urbani (Rabbit serum linear peptides) [3] | Binding of a rabbit serum to looped/cyclic peptides of protein N of SARS-CoV Urbani (Rabbit serum looped peptides) [3] | also measured |
| --- | --- | --- | --- | --- | --- | --- | --- | --- | --- | --- | --- | --- | --- | --- | --- | --- | --- | --- | --- | --- | --- |
| IVWVATEGALNTPKD | 0.2 | 0.3 | 0.1 | 0.2 | 0.2 | 0.3 | 0.2 | 0.1 | 0.7 | 0.5 | 0.7 | 0.3 | 0.6 | 0.3 | 0.3 | 0.9 | 0.6 | 0.2 | 0.1 | 0.2 | Binding of Control Serum Blood-Bank to Looped peptides [2]: 0.4; Binding of Control serum Blood-bank to linear peptides [2]: 0.8; Binding of Control serum LUMC to linear peptides [2]: 0.8; Binding of Control serum LUMC to looped peptides [2]: 0.5; Binding of antibody 03-018 to linear peptides of the N protein of SARS-CoV Urbani [4]: 0.1; Binding of antibody 03-018 to looped/cyclic peptides of the N protein of SARS-CoV Urbani [4]: 0.2 |
| TNSGPDDQIGYYRRA | 0.3 | 0.5 | 0.2 | 0.4 | 0.2 | 0.5 | 0.2 | 0.3 | 0.7 | 0.9 | 0.7 | 0.8 | 0.5 | 0.6 | 0.4 | 0.6 | 0.6 | 0.7 | 0.2 | 0.5 | Binding of Control Serum Blood-Bank to Looped peptides [2]: 0.7; Binding of Control serum Blood-bank to linear peptides [2]: 1.2; Binding of Control serum LUMC to linear peptides [2]: 0.9; Binding of Control serum LUMC to looped peptides [2]: 0.9; Binding of antibody 03-018 to linear peptides of the N protein of SARS-CoV Urbani [4]: 0.1; Binding of antibody 03-018 to looped/cyclic peptides of the N protein of SARS-CoV Urbani [4]: 0.2 |
| SDNGPQSNQRSAPRI | 0.2 | 0.3 | 0.0 | 0.0 | 0.1 | 0.3 | 0.2 | 0.3 | 0.2 | 0.5 | 0.4 | 0.4 | 0.5 | 0.4 | 0.0 | 0.2 | 0.5 | 0.1 | 0.1 | 0.2 | Binding of Control Serum Blood-Bank to Looped peptides [2]: 0.5; Binding of Control serum Blood-bank to linear peptides [2]: 0.6; Binding of Control serum LUMC to linear peptides [2]: 0.5; Binding of Control serum LUMC to looped peptides [2]: 0.5; Binding of antibody 03-018 to linear peptides of the N protein of SARS-CoV Urbani [4]: 0.0; Binding of antibody 03-018 to looped/cyclic peptides of the N protein of SARS-CoV Urbani [4]: 0.2 |
| PPTEPKKDKKKKTDE | 0.2 | 0.2 | 0.1 | 0.1 | 2.0 | 0.2 | 0.2 | 0.1 | 0.6 | 0.4 | 0.7 | 0.2 | 0.5 | 0.2 | 0.3 | 0.0 | 0.6 | 0.2 | 0.2 | 0.2 | Control Serum Blood-Bank Looped peptides [2]: 0.4; Control serum Blood-bank linear peptides [2]: 0.6; Control serum LUMC linear peptides [2]: 0.7; Control serum LUMC looped peptides [2]: 0.3; Binding of antibody 03-018 to linear peptides of the N protein of SARS-CoV Urbani [4]: 0.1; Binding of antibody 03-018 to looped/cyclic peptides of the N protein of SARS-CoV Urbani [4]: 0.2 |
